A value given as a limit tells only on which side of the number the result lay.

The first assay addresses Human LDHA (Homo sapiens (Human), UniProt P00338). As to the kind of experiment: human LDHA primary biochemical assay (resazurin/diaphorase coupled, fluorescence). The note with it: LDHA inhibitory activity, activity level based on IC50 (Table 7). The source says:
Test compounds were placed in a Greiner Bio-One (Monroe, N.C.) 1536-well black solid bottom assay plate. 200 millimolar (mM) Tris HCl, pH 7.4, 100 micromolar […] EDTA and 0.01% TWEEN-20™, final concentration, was used as the assay buffer. The LDHA reagent was 2 nanomolar (nM) Human LDHA (Meridian Life Science, Inc., Memphis, Tenn.), final concentration, in assay buffer.
A general note: Alamar Blue is a resazurin reagent that responds to reducing activity.
In the case of `Cc1ccc(-c2cc(-c3nn(-c4nc(C(=O)O)cs4)c(C4CC4)c3Cc3ccc(S(N)(=O)=O)cc3)ccc2F)cc1` [Compound 484, 2-(5-cyclopropyl-3-(6-fluoro-4′-methyl-[1,1′-biphenyl]-3-yl)-4-(4-sulfamoylbenzyl)-1H-pyrazol-1-yl)thiazole-4-carboxylic acid], the IC50 was below 0.1 µM.
`CCOC(=O)c1csc(-n2nc(-c3cccc(-c4ccc(C)cc4)c3)c(Cc3ccc(S(N)(=O)=O)cc3F)c2CC2CC2)n1` [Compound 344] yielded a half-maximal inhibitory concentration (IC50) above 57 µM.
Same read-out and setting: the same measure for `N[S+](=O)([O-])c1ccc(Cc2c(CC3CC3)nn(-c3nc(C(=O)O)cs3)c2-c2cccc(OCc3ccccc3)c2)cc1` [Compound 342]: 1 to 57 µM.

The assay is the same for the next values; noted with them: LDHA inhibitory activity, assay of Example 1; activity level classes.
In turn, `CN(C)C(=O)Oc1cc(-c2ccc(F)c(F)c2)nn1-c1nc(C(=O)Oc2ccc3c(c2)CCC3)cs1` [Compound 107, 2,3-dihydro-1H-inden-5-yl 2-(3-(3,4-difluorophenyl)-5-((dimethylcarbamoyl)oxy)-1H-pyrazol-1-yl)thiazole-4-carboxylate] came in with an IC50 above 57 µM.
Consider `CCOC(=O)c1csc(-n2nc(-c3ccc(F)c(F)c3)cc2O)n1` [Compound 121, ethyl 2-(3-(3,4-difluorophenyl)-5-hydroxy-1H-pyrazol-1-yl)thiazole-4-carboxylate], for which the IC50 is above 57 µM.
Same read-out and setting: then `O=C(O)c1csc(-n2nc(-c3cccc(F)c3F)cc2O)n1` [Compound 96, 2-(3-(2,3-difluorophenyl)-5-hydroxy-1H-pyrazol-1-yl)thiazole-4-carboxylic acid], with above 57 µM; and `Cc1nn(-c2nc(C(=O)O)cs2)c(O)c1Cc1ccc(S(N)(=O)=O)cc1` [Compound 66, 2-(5-hydroxy-3-methyl-4-(4-sulfamoylbenzyl)-1H-pyrazol-1-yl)thiazole-4-carboxylic acid], with above 57 µM.
Same read-out and setting: the same measure for `CCOC(=O)c1ccc(-n2nc(-c3ccccc3)c(Cc3ccc(S(N)(=O)=O)cc3)c2N)nn1` [Compound 140, ethyl 6-(5-amino-3-phenyl-4-(4-sulfamoylbenzyl)-1H-pyrazol-1-yl)pyridazine-3-carboxylate]: above 57 µM; for `CCOC(=O)c1csc(-n2nc(-c3cccc(OC4CCCC4)c3)c(Cc3ccc(S(N)(=O)=O)cc3F)c2CC2CC2)n1` [Compound 335]: 1 to 57 µM; for `CCOC(=O)c1csc(-n2nc(-c3ccc(F)c(-c4cccc(OC)c4)c3)c(Cc3ccc(S(N)(=O)=O)c(F)c3)c2CC2CC2)n1` [Compound 322]: 1 to 57 µM.
Consider `NS(=O)(=O)c1ccc(NCc2cn(-c3nc(C(=O)O)cs3)nc2-c2ccccc2)cc1` [Compound 139, 2-(3-phenyl-4-(((4-sulfamoylphenyl)amino)methyl)-1H-pyrazol-1-yl)thiazole-4-carboxylic acid], for which the IC50 is above 57 µM.
The same measure, in the same setting: the same measure for `O=C(O)c1csc(-n2nc(-c3ccc(F)c(F)c3)c(Cc3ccccc3)c2O)n1` [Compound 113, 2-(4-benzyl-3-(3,4-difluorophenyl)-5-hydroxy-1H-pyrazol-1-yl)thiazole-4-carboxylic acid]: above 57 µM; for `CCOC(=O)c1csc(-n2nc(CC3CC3)c(Cc3ccc(S(N)(=O)=O)c(F)c3)c2-c2ccc(F)c(-c3cccc(OC)c3)c2)n1` [Compound 321]: above 57 µM.
Molecule `NS(=O)(=O)c1ccc(Cc2c(-c3cccc(-c4ccccc4)c3)nn(-c3nc(C(=O)O)cs3)c2C2(C(F)(F)F)CC2)c(F)c1` [Compound 300] showed an IC50 of 0.1 to 1 µM.
Same read-out and setting: then `Nc1c(Cc2ccc(S(N)(=O)=O)cc2)c(-c2ccccc2)nn1-c1cc(C(=O)O)ccn1` [Compound 145, 2-(5-amino-3-phenyl-4-(4-sulfamoylbenzyl)-1H-pyrazol-1-yl)isonicotinic acid], with above 57 µM.
In the case of `NS(=O)(=O)c1ccc(Nc2c[nH]nc2-c2cccc(-c3ccccc3)c2)cc1` [Compound 161], the IC50 was above 57 µM.
`CCOC(=O)c1csc(-n2nc(C3CCCCC3)c(Oc3ccc([S+](N)(=O)[O-])cc3)c2-c2ccccc2)n1` [Compound 273]: the IC50 is above 57 µM.

The assay is the same for the next values; noted with them: read-out: Inhibitory activity IC50.
As for `Cc1noc(C)c1-c1cc(-c2c(Cc3ccc(S(N)(=O)=O)cc3F)c(CC3CC3)nn2-c2nc(C(=O)O)cs2)ccc1F` [Compound 216, 2-(3-(cyclopropylmethyl)-5-(3-(3,5-dimethylisoxazol-4-yl)-4-fluorophenyl)-4-(2-fluoro-4-sulfamoylbenzyl)-1H-pyrazol-1-yl)thiazole-4-carboxylic acid], the IC50 is above 57 µM.
The same measure, in the same setting: the same measure for `NS(=O)(=O)c1ccc(Cc2cn(-c3nc(C(=O)O)cs3)c3ncccc23)cc1` [Compound 26, 2-(3-(4-sulfamoylbenzyl)-1H-pyrrolo[2,3-b]pyridin-1-yl)thiazole-4-carboxylic acid]: 0.1 to 1 µM; for `CCOC(=O)c1csc(-n2nc(-c3cccc(-c4ccccc4)c3)c(Cc3ccc(S(N)(=O)=O)cc3)c2N)n1` [Compound 56, ethyl 2-(3-([1,1′-biphenyl]-3-yl)-5-amino-4-(4-sulfamoylbenzyl)-1H-pyrazol-1-yl)thiazole-4-carboxylate]: 1 to 57 µM; for `NS(=O)(=O)c1ccc(Cc2cn(-c3nc(C(=O)O)cs3)c3cccc(Cc4ccccc4F)c23)cc1` [Compound 198, 2-(4-(2-fluorobenzyl)-3-(4-sulfamoylbenzyl)-1H-indol-1-yl)thiazole-4-carboxylic acid]: 0.1 to 1 µM.
For `NS(=O)(=O)c1ccc(-c2cn(-c3nc(C(=O)O)cs3)nc2-c2ccccc2)cc1` [Compound 76, 2-(3-phenyl-4-(4-sulfamoylphenyl)-1H-pyrazol-1-yl)thiazole-4-carboxylic acid], the IC50 lay within 1 to 57 µM.
On the same count and under the same terms, then `NS(=O)(=O)c1ccc(Cc2cn(-c3nc(C(O)C(F)(F)F)cs3)nc2-c2ccccc2)cc1` (stereo not drawn) [Compound 154, 4-((3-phenyl-1-(4-(2,2,2-trifluoro-1-hydroxyethyl)thiazol-2-yl)-1H-pyrazol-4-yl)methyl)benzenesulfonamide], with 0.1 to 1 µM; and `O=C(O)c1csc(-n2cc(Cc3ccc(CO)cc3)c(-c3cccc(-c4ccccc4)c3)n2)n1` [Compound 200, 2-(3-([1,1′-biphenyl]-3-yl)-4-(4-(hydroxymethyl)benzyl)-1H-pyrazol-1-yl)thiazole-4-carboxylic acid], with 1 to 57 µM; and `Nc1ncnc2c(-n3cc(Cc4ccc(S(N)(=O)=O)cc4)c(-c4ccccc4)n3)csc12` [Compound 211, 4-((1-(4-aminothieno[3,2-d]pyrimidin-7-yl)-3-phenyl-1H-pyrazol-4-yl)methyl)benzenesulfonamide], with 1 to 57 µM.
Still for that read-out and setting: the same measure for `NS(=O)(=O)c1ccc(Cc2cn(-c3nc(C(=O)O)cs3)c3ccc(OC4CCOCC4)cc23)cc1` [Compound 36, 2-(3-(4-sulfamoylbenzyl)-5-((tetrahydro-2H-pyran-4-yl)oxy)-1H-indol-1-yl)thiazole-4-carboxylic acid]: 0.1 to 1 µM.
Still for that read-out and setting: then `NS(=O)(=O)c1ccc(Cc2c(-c3ccccc3)nn(-c3nc(C(=O)O)cs3)c2C2CO2)cc1` (stereo not drawn) [Compound 178, 2-(5-(oxiran-2-yl)-3-phenyl-4-(4-sulfamoylbenzyl)-1H-pyrazol-1-yl)thiazole-4-carboxylic acid], with 1 to 57 µM; and `Nc1c(Cc2ccc(S(N)(=O)=O)cc2)c(-c2ccccc2)nn1-c1ccc(Cl)nn1` [Compound 83, 4-((5-amino-1-(6-chloropyridazin-3-yl)-3-phenyl-1H-pyrazol-4-yl)methyl)benzenesulfonamide], with 1 to 57 µM; and `NS(=O)(=O)c1ccc(Cc2c(-c3ccccc3)nn(-c3nc(CO)cs3)c2C(F)(F)F)cc1` [Compound 88, 4-((1-(4-(hydroxymethyl)thiazol-2-yl)-3-phenyl-5-(trifluoromethyl)-1H-pyrazol-4-yl)methyl)benzenesulfonamide], with 1 to 57 µM.
For `NS(=O)(=O)c1ccc(Cc2cn(-c3nc(C(=O)O)cs3)c3ccc(F)cc23)cc1` [Compound 31, 2-(5-fluoro-3-(4-sulfamoylbenzyl)-1H-indol-1-yl)thiazole-4-carboxylic acid], the IC50 was 0.1 to 1 µM.
For the molecule `NS(=O)(=O)c1ccc(Oc2c(C3CCCCC3)nn(-c3nc(C(=O)O)cs3)c2-c2ccccc2)cc1` [Compound 172, 2-(3-cyclohexyl-5-phenyl-4-(4-sulfamoylphenoxy)-1H-pyrazol-1-yl)thiazole-4-carboxylic acid], the IC50 was 1 to 57 µM.
The same measure, in the same setting: then `NS(=O)(=O)c1ccc(Cc2c(CCC3CC3)nn(-c3nc(C(=O)O)cs3)c2-c2cccc(-c3ccccc3)c2)cc1` [Compound 204, 2-(5-([1,1′-biphenyl]-3-yl)-3-(2-cyclopropylethyl)-4-(4-sulfamoylbenzyl)-1H-pyrazol-1-yl)thiazole-4-carboxylic acid], with 1 to 57 µM; and `NS(=O)(=O)c1ccc(Oc2cn(-c3nc(C(=O)O)cs3)nc2-c2ccccc2)cc1` [Compound 33, 2-(3-phenyl-4-(4-sulfamoylphenoxy)-1H-pyrazol-1-yl)thiazole-4-carboxylic acid], with below 0.1 µM.
Same read-out and setting: the same measure for `N[S+](=O)([O-])c1ccc(Cc2c(CC3CC3)nn(-c3nc(C(=O)O)cs3)c2-c2ccc(F)c(Br)c2)cc1` [Compound 295]: 1 to 57 µM; for `CCOC(=O)c1csc(-n2nc(-c3cccc(-c4ccccc4)c3)c(Cc3ccc(S(N)(=O)=O)cc3)c2O)n1` [Compound 73, ethyl 2-(3-([1,1′-biphenyl]-3-yl)-5-hydroxy-4-(4-sulfamoylbenzyl)-1H-pyrazol-1-yl)thiazole-4-carboxylate]: 1 to 57 µM.
For `Cc1oc(=O)oc1COC(=O)c1csc(-n2cc(Cc3ccc(S(N)(=O)=O)cc3)c(-c3ccccc3)n2)n1` [Compound 149, (5-methyl-2-oxo-1,3-dioxol-4-yl)methyl 2-(3-phenyl-4-(4-sulfamoylbenzyl)-1H-pyrazol-1-yl)thiazole-4-carboxylate], the IC50 is 0.1 to 1 µM.

For orientation: IC50 means the concentration at which inhibition is half-maximal.

The values are drawn from patent publication US10961200B2, “Small molecule inhibitors of lactate dehydrogenase and methods of use thereof” (THE UNITED STATES OF AMERICA, AS REPRESENTED BY THE …, priority 2014, dated 2021).
